# pIC50: −log10 of the molar value. Calls of active or inactive are those of the source. No cut-off for these calls is given here.
# Experiments:
# [1] = target: T1, 5-hydroxytryptamine receptor 1A (Rattus norvegicus, UniProt P19327); assay: Displacement of [3H]-8-OH-DPAT from 5HT1A receptor in rat hippocampus; format: tissue-based
# T1 sequence (P19327 whole entry): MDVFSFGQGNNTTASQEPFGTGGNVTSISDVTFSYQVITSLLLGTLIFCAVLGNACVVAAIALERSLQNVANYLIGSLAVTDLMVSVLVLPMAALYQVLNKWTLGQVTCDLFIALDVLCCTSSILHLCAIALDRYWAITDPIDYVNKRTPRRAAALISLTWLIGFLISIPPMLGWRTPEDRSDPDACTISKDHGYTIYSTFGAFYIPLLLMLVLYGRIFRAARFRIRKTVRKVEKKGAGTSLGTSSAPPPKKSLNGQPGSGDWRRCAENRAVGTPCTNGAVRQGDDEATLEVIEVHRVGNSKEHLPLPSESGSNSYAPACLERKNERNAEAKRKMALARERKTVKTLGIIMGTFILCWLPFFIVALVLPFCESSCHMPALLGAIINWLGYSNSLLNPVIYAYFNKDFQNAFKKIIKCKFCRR
# [2] = target: 5-hydroxytryptamine receptor 2A (Rattus norvegicus, UniProt P14842); assay: Displacement of [3H]-ketanserin from 5HT2A receptor in rat cortical membrane; format: cell membranes
# 5-hydroxytryptamine receptor 2A, sequence (P14842 whole entry): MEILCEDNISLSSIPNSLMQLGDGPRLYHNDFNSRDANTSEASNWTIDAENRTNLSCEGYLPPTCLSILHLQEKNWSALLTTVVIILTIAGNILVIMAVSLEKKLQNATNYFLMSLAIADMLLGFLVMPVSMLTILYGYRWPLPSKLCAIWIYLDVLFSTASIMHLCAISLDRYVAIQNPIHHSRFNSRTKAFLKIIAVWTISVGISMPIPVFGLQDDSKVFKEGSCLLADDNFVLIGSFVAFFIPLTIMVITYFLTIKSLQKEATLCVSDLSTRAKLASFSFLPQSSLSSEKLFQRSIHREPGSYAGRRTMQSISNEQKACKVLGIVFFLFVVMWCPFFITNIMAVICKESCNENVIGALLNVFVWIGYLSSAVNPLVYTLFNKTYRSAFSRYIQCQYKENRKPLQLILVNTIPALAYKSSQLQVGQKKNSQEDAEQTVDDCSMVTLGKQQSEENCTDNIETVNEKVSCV
# Mus musculus [3] = assay: Analgesic activity in ip dosed mouse assessed as inhibition of acetic acid-induced writhing response administered 0.5 to 1 hr before acetic acid challenge; format: functional
# Mus musculus [4] = assay: Neurotoxicity in mouse at 20 mg/kg, ip by rotarod test; format: toxicity, organism-based; set-up: dose 20 mg/kg, route intraperitoneal; conditions: in vivo
# Mus musculus [5] = assay: Analgesic activity in mouse assessed as inhibition of acetic acid-induced writhing response at 10 mg/kg, po administered 0.5 to 1 hr before acetic acid challenge; format: functional
# Mus musculus [6] = assay: Analgesic activity in mouse assessed as inhibition of acetic acid-induced writhing response at 10 mg/kg, ip administered 0.5 to 1 hr before acetic acid challenge; format: functional; conditions: route intraperitoneal
# [7] = target: 5-hydroxytryptamine receptor 2A (Rattus norvegicus) (UniProt P14842); assay: Displacement of [3H]-ketanserin from 5HT2A receptor in rat cortical membrane at 1 uM; format: cell membranes
# 5-hydroxytryptamine receptor 2A (Rattus norvegicus), sequence (P14842 whole entry): as above
# [8] = target: T2, 5-hydroxytryptamine receptor 1A (Rattus norvegicus) (UniProt P19327); assay: Displacement of [3H]-8-OH-DPAT from 5HT1A receptor in rat hippocampus at 1 uM; format: tissue-based
# T2 sequence (whole entry): T1 sequence (P19327 whole entry)
# [9] = Neurotoxicity in po dosed mouse by rotarod test; format: toxicity, organism-based; conditions: in vivo
# [10] = Half life in human liver microsomes by LC/MS/MS; format: ADME, Microsome
# Mus musculus [11] = assay: Analgesic activity in po dosed mouse assessed as inhibition of acetic acid-induced writhing response administered 0.5 to 1 hr before acetic acid challenge; format: functional
# Mus musculus [12] = assay: Neurotoxicity in mouse at 50 mg/kg, ip by rotarod test; format: toxicity, organism-based; set-up: dose 50 mg/kg, route intraperitoneal; conditions: in vivo
# Mus musculus [13] = assay: Antinociceptive activity in late phase po dosed mouse by formalin test; format: functional
# Mus musculus [14] = assay: Antinociceptive activity in late phase ip dosed mouse by formalin test; format: functional
# Rattus norvegicus [15] = assay: Antiinflammatory activity in rat persistent inflammatory pain model assessed as inhibition of carrageenan-induced mechanical hyperalgesia at 100 mg/kg, po; format: functional
# Mus musculus [16] = assay: Antinociceptive activity in mouse up to 100 mg/kg, ip by hot plate test; format: functional, organism-based; set-up: dose 100 mg/kg
# Mus musculus [17] = assay: Antinociceptive activity in po dosed mouse by hot plate test; format: functional
# Rattus norvegicus [18] = assay: Antiinflammatory activity in po dosed rat persistent inflammatory pain model assessed as inhibition of carrageenan-induced mechanical hyperalgesia; format: functional
Compound,inhibition in vivo at 10 mg/kg (Mus musculus [5]),inhibition [7],inhibition [8],further results
"Cc1cccc(N2CCN(CCC(OC(N)=O)c3ccccc3)CC2)c1 (single isomer, unassigned)",–,–,–,pIC50 [1]: 7.22; pIC50 [2]: 7.03
"NC(=O)OC(CCN1CCN(c2ccc(F)cc2)CC1)c1ccccc1 (single isomer, unassigned)",88%,–,–,ED50 (Mus musculus [3]): 0.55 mg/kg; Activity (Mus musculus [4]): Toxic; pIC50 [1]: 4.98
"NC(=O)OC(CCN1CCN(c2ccc(Cl)cc2)CC1)c1ccccc1 (single isomer, unassigned)",–,–,–,inhibition in vivo at 10 mg/kg (Mus musculus [6]): 52%
"NC(=O)OC(CCN1CCN(c2ccc(C(F)(F)F)cc2)CC1)c1ccccc1 (single isomer, unassigned)",–,–,–,pIC50 [1]: 5.14; pIC50 [2]: 5.68
"Cc1ccc(N2CCN(CCC(OC(N)=O)c3ccccc3)CC2)cc1 (single isomer, unassigned)",–,–,–,pIC50 [1]: 5.89; pIC50 [2]: 6.43
"Cc1ccc(N2CCN(CCC(OC(N)=O)c3ccccc3)CC2)c(C)c1 (single isomer, unassigned)",34%,–,–,–
"COc1ccc(N2CCN(CCC(OC(N)=O)c3ccccc3)CC2)c(OC)c1 (single isomer, unassigned)",19%,–,–,–
"NC(=O)OC(CCN1CCN(c2ccccc2O)CC1)c1ccccc1 (single isomer, unassigned)",37%,–,–,–
"NC(=O)OC(CCN1CCN(c2ccc(C(F)(F)F)cc2[N+](=O)[O-])CC1)c1ccccc1 (single isomer, unassigned)",50%,–,–,–
"NC(=O)OC(CCN1CCN(c2ccc(Cl)c(C(F)(F)F)c2)CC1)c1ccccc1 (single isomer, unassigned)",52%,–,–,–
"COc1cc(OC)cc(N2CCN(CCC(OC(N)=O)c3ccccc3)CC2)c1 (single isomer, unassigned)",13%,–,–,–
"Cc1cccc(C)c1N1CCN(CCC(OC(N)=O)c2ccccc2)CC1 (single isomer, unassigned)",48%,–,–,–
"NC(=O)OC(CCN1CCN(c2ccc(OC(F)(F)F)cc2)CC1)c1ccccc1 (single isomer, unassigned)",18%,–,–,–
"NC(=O)OC(CCN1CCN(c2ccc(F)cc2)CC1)c1ccc(F)cc1 (single isomer, unassigned)",52%,93.9%,60.9%,–
"NC(=O)OC(CCN1CCN(c2ccc([N+](=O)[O-])cc2)CC1)c1ccc(F)cc1 (single isomer, unassigned)",70%,29.6%,29.6%,TD50 [9]: 97.8 mg/kg
"NC(=O)OC(CCN1CCN(c2ccc(O)cc2)CC1)c1ccc(F)cc1 (single isomer, unassigned)",–,–,–,half-life [10]: 2.48 h
"NC(=O)OC(CCN1CCN(c2ccccc2)CC1)c1ccc(Cl)cc1 (single isomer, unassigned)",–,84.6%,64.6%,ED50 (Mus musculus [11]): 2.1 mg/kg; half-life [10]: 0.25 h
"NC(=O)OC(CCN1CCN(c2ccccc2)CC1)c1cccc([N+](=O)[O-])c1 (single isomer, unassigned)",48%,86.4%,74.6%,inhibition in vivo at 10 mg/kg (Mus musculus [6]): 100%
"NC(=O)OC(CCN1CCN(c2ccccc2)CC1)c1ccc([N+](=O)[O-])cc1 (single isomer, unassigned)",91.2%,88%,81.4%,Activity (Mus musculus [12]): Toxic; inhibition in vivo at 10 mg/kg (Mus musculus [6]): 100%; TD50 [9]: 53.4 mg/kg
"CC(C)(C)c1ccc(C(CCN2CCN(c3ccccc3)CC2)OC(N)=O)cc1 (single isomer, unassigned)",62%,98.8%,44.4%,–
"NC(=O)OC(CCN1CCN(c2ccccc2)CC1)c1cccc(Cl)c1 (single isomer, unassigned)",59%,93.7%,76.4%,inhibition in vivo at 10 mg/kg (Mus musculus [6]): 100%
"COc1ccc(C(CCN2CCN(c3ccccc3)CC2)OC(N)=O)cc1 (single isomer, unassigned)",43%,82%,67.7%,Activity (Mus musculus [12]): Toxic; inhibition in vivo at 10 mg/kg (Mus musculus [6]): 100%
O=C(c1ccccc1)c1ccc2n1CCC2C(=O)O (configuration not stated) [KETOROLAC],–,–,–,ED50 (Mus musculus [13]): 17.9 mg/kg; ED50 (Mus musculus [14]): 12.9 mg/kg; inhibition in vivo at 100 mg/kg (Rattus norvegicus [15]): 36.4%; Activity (Mus musculus [16]): inactive
CN1CC[C@]23c4c5ccc(O)c4O[C@H]2[C@@H](O)C=C[C@H]3[C@H]1C5 [MORPHINE],–,–,–,ED50 (Mus musculus [3]): 0.96 mg/kg; ED50 (Mus musculus [13]): 9.15 mg/kg; ED50 (Mus musculus [11]): 5.57 mg/kg; ED50 (Mus musculus [17]): 13.5 mg/kg; ED50 (Rattus norvegicus [18]): 0.6 mg/kg
